This data set can be described thus: Solubility in various solvents (sonicated at 25° C., centrifuged, filtered, HPLC). The class given is physicochemical. As to conditions: thermodynamic from solid, read-out: Solubility (mg/mL at 25° C.). The procedure: The solubility of compound 141 was evaluated in various solvents. In the evaluation, a compound 141 sample was place into a 1.5 mL vial, 1 mL of the solvent was added, and the mixture was sonicated at 25° C. for 5 minutes. The mixture was then centrifuged, the upper supernatant was filtered through a microfilter, a filtrate aliquot was taken, diluted with acetonitrile, filtered, and injected into an HPLC column. The results are summarized in Example 8 Table 4 below where the purity of compound 141 was greater than 98 area % by HPLC.
The solubility of compound 180 was evaluated in various solvents. In the evaluation, a compound 180 sample was placed into a 1.5 mL vial, 1 mL of the solvent was added, and the mixture was sonicated at 25° C. for 5 minutes. The mixture was then centrifuged, the upper supernatant was filtered through a microfilter, a filtrate aliquot was taken, diluted with acetonitrile, filtered, and injected into an HPLC column. The results are summarized in Example 9 Table 4 below where the purity of compound 180 was greater than 98 area % by HPLC.

[1] abbreviates: organic solvent or mixture, solvent Acetone.
Setting [2] is: organic solvent or mixture, solvent Acetonitrile.
The mark [3] stands for this setting: organic solvent or mixture, solvent Dichloromethane.
The mark [4] stands for this setting: organic solvent or mixture, solvent Dimethylformamide.
The mark [5] stands for this setting: organic solvent or mixture, solvent Ethanol.
The mark [6] stands for this setting: organic solvent or mixture, solvent Ethyl acetate.
[7] abbreviates: organic solvent or mixture, solvent Heptane.
The mark [8] stands for this setting: organic solvent or mixture, solvent Isopropanol.
[9] abbreviates: organic solvent or mixture, solvent Methanol.
Setting [10] is: organic solvent or mixture, solvent Methyl tetrahydrofuran.
Setting [11] is: organic solvent or mixture, solvent Petroleum ether.
Where [12] appears, read: organic solvent or mixture, solvent Tetrahydrofuran.
[13] abbreviates: organic solvent or mixture, solvent Toluene.
[14] abbreviates: organic solvent or mixture, solvent tert-Butyl methyl ether.

≈ marks a conversion by molar mass, not a printed value. Read-outs that look alike come from different tables or passages of the source.

As to `C[C@H]1CN(C2COC2)CCN1c1ccc(N)nc1` [Compound 141], the solubility at 5 min reads like this: under setting [1], 154 mg/mL (≈ 619 mM); under setting [2], 97.7 mg/mL (≈ 393 mM); under setting [3], 269 mg/mL (≈ 1080 mM); under setting [4], 200 mg/mL (≈ 803 mM); under setting [5], 154 mg/mL (≈ 618 mM); under setting [6], 82.3 mg/mL (≈ 331 mM). Besides, the solubility at 5 min under setting [7] was determined as 0.32 mg/mL (≈ 1.29 mM); the solubility at 5 min under setting [8] turned out to be 222 mg/mL (≈ 895 mM); the solubility at 5 min under setting [9] was determined as 221 mg/mL (≈ 892 mM); the solubility at 5 min under setting [10] stood at 83 mg/mL (≈ 334 mM); the solubility at 5 min under setting [11] was 0.26 mg/mL (≈ 1.05 mM); the solubility at 5 min under setting [12] was found to be 175 mg/mL (≈ 705 mM). The solubility at 5 min came out at 20.6 mg/mL (≈ 83 mM) under setting [13], 7.39 mg/mL (≈ 29.8 mM) under setting [14] and 30.7 mg/mL (≈ 124 mM) (solvent Water).

Take `C[C@H]1CN(C2COC2)CCN1c1ccc(Nc2cc(Br)cn(C)c2=O)nc1` [Compound 180]: the solubility at 5 min under setting [1] worked out at 3.73 mg/mL (≈ 8.59 mM); the solubility at 5 min under setting [2] is 2.3 mg/mL (≈ 5.3 mM); the solubility at 5 min under setting [3] stood at 50.6 mg/mL (≈ 116 mM); the solubility at 5 min under setting [4] turned out to be 20.8 mg/mL (≈ 47.9 mM); the solubility at 5 min (organic solvent or mixture, solvent Dioxane) turned out to be 44.7 mg/mL (≈ 103 mM); the solubility at 5 min under setting [5] came to 1.52 mg/mL (≈ 3.5 mM). In addition, the solubility at 5 min runs as follows: under setting [6], 4.53 mg/mL (≈ 10.4 mM); under setting [7], 0.03 mg/mL (≈ 0.0691 mM); under setting [8], 2.65 mg/mL (≈ 6.1 mM); under setting [9], 1.35 mg/mL (≈ 3.11 mM); under setting [10], 7.19 mg/mL (≈ 16.6 mM); under setting [11], 0.03 mg/mL (≈ 0.0691 mM). Further, the solubility at 5 min reads like this: under setting [12], 24 mg/mL (≈ 55.3 mM); under setting [13], 9.81 mg/mL (≈ 22.6 mM); under setting [14], 1.25 mg/mL (≈ 2.88 mM); (solvent Water) 0.52 mg/mL (≈ 1.2 mM).

(Values after patent US10882864B2, “Process for preparing BTK inhibitors” (Genentech, Inc., priority 2016, dated 2021).)
